Measurements from the NIST ThermoML archive (doi:10.1016/j.jct.2016.09.013).
± gives the expanded uncertainty stated by the source.

Settings: Liquid; for viscosity: Concentric cylinders viscometry

SMILES: CCn1cc[n+](C)c1.COP(=O)([O-])OC [1-ethyl-3-methylimidazolium dimethylphosphate]
- viscosity (303.15 K, 101.33 kPa): 186 ± 3.9 mPa·s
- mass density (303.15 K, 101.33 kPa, Vibrating tube method): 1214.4 ± 1.6 kg/m3
- mass density (312 K, 10000 kPa, Bellows volumetry): 1212.6 ± 1.9 kg/m3
- mass density (312 K, 20000 kPa, Bellows volumetry): 1216.9 ± 1.9 kg/m3
- mass density (312 K, 30000 kPa, Bellows volumetry): 1221 ± 1.9 kg/m3
- mass density (312 K, 40000 kPa, Bellows volumetry): 1224.9 ± 1.9 kg/m3
- mass density (312 K, 50000 kPa, Bellows volumetry): 1228.8 ± 1.9 kg/m3
- mass density (312 K, 60000 kPa, Bellows volumetry): 1232.5 ± 1.9 kg/m3
- viscosity (313.15 K, 101.33 kPa): 107.5 ± 1.7 mPa·s
- mass density (313.15 K, 101.33 kPa, Vibrating tube method): 1207.6 ± 1.5 kg/m3
- viscosity (323.15 K, 101.33 kPa): 67.1 ± 0.91 mPa·s
- mass density (323.15 K, 101.33 kPa, Vibrating tube method): 1200.9 ± 1.5 kg/m3
- mass density (331.7 K, 10000 kPa, Bellows volumetry): 1199.7 ± 1.8 kg/m3
- mass density (331.7 K, 20000 kPa, Bellows volumetry): 1204.1 ± 1.8 kg/m3
- mass density (331.7 K, 30000 kPa, Bellows volumetry): 1208.5 ± 1.9 kg/m3
- mass density (331.7 K, 40000 kPa, Bellows volumetry): 1212.6 ± 1.9 kg/m3
- mass density (331.7 K, 50000 kPa, Bellows volumetry): 1216.6 ± 1.9 kg/m3
- mass density (331.7 K, 60000 kPa, Bellows volumetry): 1220.4 ± 1.9 kg/m3
- mass density (331.7 K, 70000 kPa, Bellows volumetry): 1224.1 ± 1.9 kg/m3
- mass density (331.7 K, 80000 kPa, Bellows volumetry): 1227.8 ± 1.9 kg/m3
- mass density (331.7 K, 90000 kPa, Bellows volumetry): 1231.3 ± 1.9 kg/m3
- mass density (331.7 K, 100000 kPa, Bellows volumetry): 1234.7 ± 1.9 kg/m3
- mass density (331.7 K, 110000 kPa, Bellows volumetry): 1238.1 ± 1.9 kg/m3
- mass density (331.7 K, 120000 kPa, Bellows volumetry): 1241.3 ± 1.9 kg/m3
- mass density (331.7 K, 130000 kPa, Bellows volumetry): 1244.5 ± 1.9 kg/m3
- mass density (331.7 K, 140000 kPa, Bellows volumetry): 1247.6 ± 1.9 kg/m3
- mass density (331.7 K, 150000 kPa, Bellows volumetry): 1250.8 ± 1.9 kg/m3
- mass density (331.7 K, 160000 kPa, Bellows volumetry): 1253.7 ± 1.9 kg/m3
- mass density (331.7 K, 170000 kPa, Bellows volumetry): 1256.7 ± 1.9 kg/m3
- mass density (331.7 K, 180000 kPa, Bellows volumetry): 1259.5 ± 1.9 kg/m3
- mass density (331.7 K, 190000 kPa, Bellows volumetry): 1262.3 ± 1.9 kg/m3
- mass density (331.7 K, 200000 kPa, Bellows volumetry): 1265.2 ± 1.9 kg/m3
- viscosity (333.15 K, 101.33 kPa): 44.64 ± 0.6 mPa·s
- mass density (333.15 K, 101.33 kPa, Vibrating tube method): 1194.3 ± 1.5 kg/m3
- viscosity (343.15 K, 101.33 kPa): 31.27 ± 0.42 mPa·s
- mass density (343.15 K, 101.33 kPa, Vibrating tube method): 1187.6 ± 1.5 kg/m3
- mass density (351.7 K, 10000 kPa, Bellows volumetry): 1186.8 ± 1.8 kg/m3
- mass density (351.7 K, 20000 kPa, Bellows volumetry): 1191.5 ± 1.8 kg/m3
- mass density (351.7 K, 30000 kPa, Bellows volumetry): 1196 ± 1.8 kg/m3
- mass density (351.7 K, 40000 kPa, Bellows volumetry): 1200.3 ± 1.8 kg/m3
- mass density (351.7 K, 50000 kPa, Bellows volumetry): 1204.5 ± 1.8 kg/m3
- mass density (351.7 K, 60000 kPa, Bellows volumetry): 1208.5 ± 1.9 kg/m3
- mass density (351.7 K, 70000 kPa, Bellows volumetry): 1212.4 ± 1.9 kg/m3
- mass density (351.7 K, 80000 kPa, Bellows volumetry): 1216.2 ± 1.9 kg/m3
- mass density (351.7 K, 90000 kPa, Bellows volumetry): 1219.8 ± 1.9 kg/m3
- mass density (351.7 K, 100000 kPa, Bellows volumetry): 1223.3 ± 1.9 kg/m3
- mass density (351.7 K, 110000 kPa, Bellows volumetry): 1226.9 ± 1.9 kg/m3
- mass density (351.7 K, 120000 kPa, Bellows volumetry): 1230.4 ± 1.9 kg/m3
- mass density (351.7 K, 130000 kPa, Bellows volumetry): 1233.6 ± 1.9 kg/m3
- mass density (351.7 K, 140000 kPa, Bellows volumetry): 1236.9 ± 1.9 kg/m3
- mass density (351.7 K, 150000 kPa, Bellows volumetry): 1240 ± 1.9 kg/m3
- mass density (351.7 K, 160000 kPa, Bellows volumetry): 1243.2 ± 1.9 kg/m3
- mass density (351.7 K, 170000 kPa, Bellows volumetry): 1246.2 ± 1.9 kg/m3
- mass density (351.7 K, 180000 kPa, Bellows volumetry): 1249.1 ± 1.9 kg/m3
- mass density (351.7 K, 190000 kPa, Bellows volumetry): 1252 ± 1.9 kg/m3
- mass density (351.7 K, 200000 kPa, Bellows volumetry): 1255 ± 1.9 kg/m3
- viscosity (353.15 K, 101.33 kPa): 22.85 ± 0.3 mPa·s
- mass density (353.15 K, 101.33 kPa, Vibrating tube method): 1181.1 ± 1.5 kg/m3
- viscosity (363.15 K, 101.33 kPa): 17.29 ± 0.23 mPa·s
- mass density (363.15 K, 101.33 kPa, Vibrating tube method): 1174.5 ± 1.5 kg/m3
- mass density (372.4 K, 10000 kPa, Bellows volumetry): 1174.1 ± 1.8 kg/m3
- mass density (372.4 K, 20000 kPa, Bellows volumetry): 1179 ± 1.8 kg/m3
- mass density (372.4 K, 30000 kPa, Bellows volumetry): 1182.8 ± 1.8 kg/m3
- mass density (372.4 K, 40000 kPa, Bellows volumetry): 1188.3 ± 1.8 kg/m3
- mass density (372.4 K, 50000 kPa, Bellows volumetry): 1192.6 ± 1.8 kg/m3
- mass density (372.4 K, 60000 kPa, Bellows volumetry): 1196.9 ± 1.8 kg/m3
- mass density (372.4 K, 70000 kPa, Bellows volumetry): 1200.9 ± 1.8 kg/m3
- mass density (372.4 K, 80000 kPa, Bellows volumetry): 1204.9 ± 1.8 kg/m3
- mass density (372.4 K, 90000 kPa, Bellows volumetry): 1208.7 ± 1.9 kg/m3
- mass density (372.4 K, 100000 kPa, Bellows volumetry): 1212.4 ± 1.9 kg/m3
- mass density (372.4 K, 110000 kPa, Bellows volumetry): 1216 ± 1.9 kg/m3
- mass density (372.4 K, 120000 kPa, Bellows volumetry): 1219.5 ± 1.9 kg/m3
- mass density (372.4 K, 130000 kPa, Bellows volumetry): 1223 ± 1.9 kg/m3
- mass density (372.4 K, 140000 kPa, Bellows volumetry): 1226.3 ± 1.9 kg/m3
- mass density (372.4 K, 150000 kPa, Bellows volumetry): 1229.6 ± 1.9 kg/m3
- mass density (372.4 K, 160000 kPa, Bellows volumetry): 1232.8 ± 1.9 kg/m3
- mass density (372.4 K, 170000 kPa, Bellows volumetry): 1235.9 ± 1.9 kg/m3
- mass density (372.4 K, 180000 kPa, Bellows volumetry): 1238.9 ± 1.9 kg/m3
- mass density (372.4 K, 190000 kPa, Bellows volumetry): 1242 ± 1.9 kg/m3
- mass density (372.4 K, 200000 kPa, Bellows volumetry): 1244.9 ± 1.9 kg/m3
- viscosity (373.15 K, 101.33 kPa): 13.47 ± 0.18 mPa·s
- mass density (373.15 K, 101.33 kPa, Vibrating tube method): 1168.1 ± 1.5 kg/m3
- mass density (391.9 K, 10000 kPa, Bellows volumetry): 1161.7 ± 1.8 kg/m3
- mass density (391.9 K, 20000 kPa, Bellows volumetry): 1166.8 ± 1.8 kg/m3
- mass density (391.9 K, 30000 kPa, Bellows volumetry): 1171.8 ± 1.8 kg/m3
- mass density (391.9 K, 40000 kPa, Bellows volumetry): 1176.6 ± 1.8 kg/m3
- mass density (391.9 K, 50000 kPa, Bellows volumetry): 1181.2 ± 1.8 kg/m3
- mass density (391.9 K, 60000 kPa, Bellows volumetry): 1185.6 ± 1.8 kg/m3
- mass density (391.9 K, 70000 kPa, Bellows volumetry): 1189.9 ± 1.8 kg/m3
- mass density (391.9 K, 80000 kPa, Bellows volumetry): 1194 ± 1.8 kg/m3
- mass density (391.9 K, 90000 kPa, Bellows volumetry): 1198 ± 1.8 kg/m3
- mass density (391.9 K, 100000 kPa, Bellows volumetry): 1201.8 ± 1.9 kg/m3
- mass density (391.9 K, 110000 kPa, Bellows volumetry): 1205.6 ± 1.9 kg/m3
- mass density (391.9 K, 120000 kPa, Bellows volumetry): 1209.1 ± 1.9 kg/m3
- mass density (391.9 K, 130000 kPa, Bellows volumetry): 1212.7 ± 1.9 kg/m3
- mass density (391.9 K, 140000 kPa, Bellows volumetry): 1216.1 ± 1.9 kg/m3
- mass density (391.9 K, 150000 kPa, Bellows volumetry): 1219.5 ± 1.9 kg/m3
- mass density (391.9 K, 160000 kPa, Bellows volumetry): 1222.8 ± 1.9 kg/m3
- mass density (391.9 K, 170000 kPa, Bellows volumetry): 1226 ± 1.9 kg/m3
- mass density (391.9 K, 180000 kPa, Bellows volumetry): 1229.1 ± 1.9 kg/m3
- mass density (391.9 K, 190000 kPa, Bellows volumetry): 1232.2 ± 1.9 kg/m3
- mass density (391.9 K, 200000 kPa, Bellows volumetry): 1235.3 ± 1.9 kg/m3
